This passage reports fold increase in Dox EC50 and EC50 results from PubChem BioAssay AID844 (SRMLSC, 2007).

The test system of the assay is MRP1 cells, doxorubicin viability shift, 10 uM compound. The assay is described as follows: viability protection against doxorubicin, MRP-1 line – cell-based, doxorubicin EC50 shift, dose response (AID 844). The note with it: for EC50: measured here: doxorubicin EC50 with compound.

Calls of active or inactive are those of the source. How the calls were made is not given here.

On to `Cc1ccc2c(C)nc(/N=C(\N)NC(=O)N3c4ccccc4Sc4ccccc43)nc2c1`, for which the fold increase in Dox EC50 was 1.38 (inactive) and the EC50 was 7.48 µM.
As for `Oc1c(C(c2cccs2)N2CCN(c3ccc(F)cc3)CC2)sc2ncnn12` (centres undefined), the fold increase in Dox EC50 was 1.32 (inactive) and the 50% effective concentration (EC50) was found to be 7.1 µM.
Take `N#Cc1nc(COc2ccc(F)cc2)oc1N1CCC(Cc2ccccc2)CC1`: the fold increase in Dox EC50 is 0.99 (inactive) and the EC50 stood at 5.35 µM.
In the case of `COC(=O)N/N=C/c1ccc(-c2ccc(C)c(Cl)c2)o1`, the fold increase in Dox EC50 was 0.63 (inactive) and the EC50 is 3.41 µM.
On to `O=C(Cc1ccccc1)Nc1ccccc1Oc1ccccc1`, for which the fold increase in Dox EC50 was 0.69 (inactive) and the EC50 was found to be 3.71 µM.
Take `CCOc1ccc(NC(=O)CN2C(=O)COc3ccc(Cl)cc32)cc1`: the fold increase in Dox EC50 was 1.33 (inactive) and the EC50 is 7.19 µM.
Take `CCN(CC)C(=O)C(=O)c1c(-c2ccccc2)[nH]c2ccccc12`: the fold increase in Dox EC50 was 2.22 and the EC50 came to 12 µM.
Regarding `Cn1nnc(NC(=O)COc2ccc(C3CCCCC3)cc2)n1`, the fold increase in Dox EC50 is 1.49 and the EC50 stood at 8.05 µM.
On the same counts, the results for `O=C(O)CCN1C(=O)CC(N2C(=O)/C(=C/c3ccc(Cl)cc3)SC2=S)C1=O` (centres undefined) are 1.3 (inactive) and 7.04 µM.
With `CCOc1ccccc1CNC(=O)c1cc2oc3ccccc3c2n1CC`, the fold increase in Dox EC50 is 1.24 (inactive) and the EC50 is 6.7 µM.
In the case of `CC1CCC/C(=C(\C#N)c2nc(-c3cc4ccccc4oc3=O)cs2)C1` (centres undefined), the fold increase in Dox EC50 is 0.55 (inactive) and the EC50 came out at 2.96 µM.
Turning to `COc1ccc(CNc2nc3c(c(=O)n(Cc4ccc(Br)cc4)c(=O)n3C)n2C)cc1`, the fold increase in Dox EC50 is 0.95 (inactive) and the EC50 worked out at 5.13 µM.
On the same counts, the results for `O=C(NCC1(c2ccccc2)CCOCC1)c1ccc(Br)o1` are 1.3 (inactive) and 7.01 µM.
On to `Cc1ccc(-c2nnn(CC(=O)N(c3ccccc3F)C(C(=O)NCC3CCCO3)c3c[nH]c4ccccc34)n2)cc1` (centres undefined), for which the fold increase in Dox EC50 was 0.5 (inactive) and the EC50 is 2.67 µM.
On to `O=[N+]([O-])c1ccc(O)c(N=Cc2sc3ccccc3c2O)c1`, for which the fold increase in Dox EC50 was 0.08 (inactive) and the EC50 was 0.457 µM.
As to `Cn1c(N)c(C(=O)COC(=O)c2cc(C3CC3)nc3ccccc23)c(=O)n(Cc2ccccc2)c1=O`, the fold increase in Dox EC50 was 0.94 (inactive) and the EC50 was determined as 5.07 µM.
In the case of `CCOC(=O)C1=C(C)Nc2ncnn2C1c1cccnc1` (centres undefined), the fold increase in Dox EC50 was 0.83 (inactive) and the EC50 turned out to be 4.5 µM.
On the same counts, the results for `Cn1c(=O)n(C/C=C/c2ccccc2)c(=O)c2c1nc1n2CCCN1c1ccc(F)cc1` are 0.76 (inactive) and 4.12 µM.
On to `CCOc1ccccc1Nc1ncnc2c1cnn2-c1ccccc1`, for which the fold increase in Dox EC50 was 0.57 (inactive) and the EC50 was 3.08 µM.
Consider `CC(=O)Nc1nc(C)c(Oc2ccc(Cl)cc2Cl)c(=O)[nH]1`, for which the fold increase in Dox EC50 was 0.74 (inactive) and the EC50 was 4.01 µM.
Take `Cc1ccc(C(c2sc3ncnn3c2O)N2CCC(C)CC2)cc1` (centres undefined): the fold increase in Dox EC50 was 0.72 (inactive) and the EC50 was 3.87 µM.
On the same counts, the results for `S=C(NCc1ccccn1)Nc1ccccc1Cl` are 1.14 (inactive) and 6.15 µM.
Consider `Cc1nn(Cc2ccc(Cl)cc2Cl)c(C)c1NC(=O)c1ccc(COc2cc(Cl)ccc2Cl)o1`, for which the fold increase in Dox EC50 was 0.82 (inactive) and the EC50 stood at 4.4 µM.
As for `COc1cc(NS(=O)(=O)c2ccc(C)cc2)ccc1-n1cnnn1`, the fold increase in Dox EC50 was 1.02 (inactive) and the EC50 was 5.51 µM.
For `O=C1c2cccc3cccc(c23)C(=O)N1CCN1CCN(CC(O)COc2ccccc2)CC1` (centres undefined), the fold increase in Dox EC50 is 0.32 (inactive) and the EC50 worked out at 1.71 µM.
Turning to `CCOC(=S)NC(=O)c1sc2ccccc2c1Cl`, the fold increase in Dox EC50 is 1.32 (inactive) and the EC50 came out at 7.13 µM.
`COc1ccc(OC)c(-c2cc(C(=O)Nc3c(C)nn(Cc4ccccc4Cl)c3C)no2)c1`: the fold increase in Dox EC50 is 0.55 (inactive) and the EC50 turned out to be 2.99 µM.
On to `N#CCCNC(=O)Cn1c(COc2ccc(Cl)cc2)nc2ccccc21`, for which the fold increase in Dox EC50 was 0.85 (inactive) and the EC50 was found to be 4.57 µM.
As to `CC(=O)N1CCN=C1SCc1ccccc1F`, the fold increase in Dox EC50 is 0.78 (inactive) and the EC50 was found to be 4.2 µM.
Turning to `CCCn1c(C)cc(/C=C(\C#N)C(=O)OCC(=O)Nc2ccc(OC)c(Cl)c2)c1C`, the fold increase in Dox EC50 is 0.7 (inactive) and the EC50 is 3.81 µM.
Turning to `CCc1c(C)sc(NC(=O)c2cc(CC(C)C)on2)c1C#N`, the fold increase in Dox EC50 is 0.64 (inactive) and the EC50 was 3.45 µM.
For `Cc1ccc(N=Nc2c(N)[nH]n3c(=O)cc(-c4ccccc4)nc23)cc1`, the fold increase in Dox EC50 is 0.08 (inactive) and the EC50 was found to be 0.452 µM.
In the case of `COc1cc(S(=O)(=O)Nc2cccc(C)c2)ccc1NC(=O)c1ccncc1`, the fold increase in Dox EC50 was 0.6 (inactive) and the EC50 was determined as 3.26 µM.
On to `N#Cc1c(-c2cccs2)nc(SCC(=O)c2cccs2)[nH]c1=O`, for which the fold increase in Dox EC50 was 1.12 (inactive) and the EC50 worked out at 6.05 µM.
On the same counts, the results for `Cc1cc(Br)ccc1NC(=O)CNC(=O)CN1C(=O)NC2(CCCCCC2)C1=O` are 1.34 (inactive) and 7.25 µM.
For `COc1ccc(N2CCN(c3nc(Cl)nc(N4CCOCC4)n3)CC2)cc1`, the fold increase in Dox EC50 was 0.69 (inactive) and the EC50 amounted to 3.72 µM.
`COc1ccc(CN=C2NC(=O)CC(C(=O)Nc3ccccc3C)S2)cc1` (centres undefined): the fold increase in Dox EC50 is 1.16 (inactive) and the EC50 was 6.24 µM.
`CCCCc1ccc(-c2nc(-c3ccncc3)no2)cc1`: the fold increase in Dox EC50 was 0.76 (inactive) and the EC50 worked out at 4.09 µM.
On the same counts, the results for `Cc1cc(NC(=O)CSc2nc(-c3ccccc3)c(C#N)c(=O)[nH]2)no1` are 1.51 and 8.14 µM.
Turning to `O=C(NNC(=O)c1cccc(S(=O)(=O)N2CCN(c3ccccc3)CC2)c1)c1ccc(Cl)cc1`, the fold increase in Dox EC50 is 1.47 (inactive) and the EC50 turned out to be 7.95 µM.
On the same counts, the results for `COc1cccc(Nc2nc3ccccc3nc2-n2nc(C)cc2C)c1` are 0.35 (inactive) and 1.89 µM.
On the same counts, the results for `N#Cc1c(N)n(CCOC(=O)c2cccc(Br)c2)c2nc3ccccc3nc12` are 0.93 (inactive) and 5.04 µM.
With `O=C(NNC1=C(C(=O)C(F)(F)F)CCC1)c1cccc(Cl)c1`, the fold increase in Dox EC50 is 1.03 (inactive) and the EC50 was determined as 5.54 µM.
On the same counts, the results for `CC(=O)OCC(=O)[C@@]1(O)[C@H](C)C[C@H]2[C@@H]3CCC4=CC(=O)C=C[C@]4(C)[C@@]3(F)[C@@H](O)C[C@@]21C` are 1 (inactive) and 5.42 µM.
Regarding `Cc1ccc(Cl)cc1N1CCN(C(=O)Cc2ccc(-n3c(=O)[nH]c4ccsc4c3=O)cc2)CC1`, the fold increase in Dox EC50 is 0.78 (inactive) and the EC50 came out at 4.24 µM.
Take `O=C1CC(N2CCC(c3nc4ccccc4o3)CC2)C(=O)N1c1cc(Cl)cc(Cl)c1` (centres undefined): the fold increase in Dox EC50 was 1.36 (inactive) and the EC50 was 7.36 µM.
With `Cc1ccc(/C=C2\SC(=S)N(CCCC(=O)Nc3ccccn3)C2=O)cc1`, the fold increase in Dox EC50 was 0.82 (inactive) and the EC50 came out at 4.44 µM.
Take `CN(CC(=O)NCCc1ccc(Cl)cc1)S(=O)(=O)c1ccc2c(c1)c(=O)n(C)c(=O)n2C`: the fold increase in Dox EC50 is 0.54 (inactive) and the EC50 came to 2.93 µM.
Take `CC12CCC(c3nnc(SCc4ccc(Cl)cc4)nc31)C2(C)C` (centres undefined): the fold increase in Dox EC50 was 1.32 (inactive) and the EC50 came out at 7.1 µM.
In the case of `O=C(CSc1nccn1-c1cccc(Cl)c1)Nc1ccc2c(c1)OCCO2`, the fold increase in Dox EC50 is 1.22 (inactive) and the EC50 turned out to be 6.58 µM.
Take `Cc1ccc(/C=C2\SC(=S)N(CCC(=O)NNC(=O)c3cccnc3)C2=O)cc1`: the fold increase in Dox EC50 was 0.91 (inactive) and the EC50 amounted to 4.9 µM.
Turning to `Cc1cc(C)c(N=Cc2c(O)n(-c3nccs3)c(=O)c3ccccc23)c(C)c1`, the fold increase in Dox EC50 was 0.29 (inactive) and the EC50 came to 1.54 µM.
As for `CC(C)CNC(=O)c1c(N)n(/N=C/c2ccccn2)c2nc3ccccc3nc12`, the fold increase in Dox EC50 is 0.94 (inactive) and the EC50 amounted to 5.08 µM.
On the same counts, the results for `c1ccc2c(-c3nc(C4CCCCC4)no3)cc(-c3ccncc3)nc2c1` are 0.62 (inactive) and 3.32 µM.
In the case of `O=C(Nc1ncc(Cc2ccc(C(F)(F)F)cc2)s1)c1ccc(-c2cccc([N+](=O)[O-])c2)o1`, the fold increase in Dox EC50 was 0.71 (inactive) and the EC50 worked out at 3.86 µM.
For `Cn1c(=O)oc2cc(S(=O)(=O)N3CCCC(C(=O)NCC4COc5ccccc5O4)C3)ccc21` (centres undefined), the fold increase in Dox EC50 is 0.53 (inactive) and the EC50 was 2.86 µM.
Consider `CC(C)CCOc1ncnc2c1sc1nc3c(cc12)CSC(C)(C)C3`, for which the fold increase in Dox EC50 was 0.51 (inactive) and the EC50 came out at 2.76 µM.
Take `O=C(NC(=S)NC(=O)c1ccccc1F)c1ccccc1F`: the fold increase in Dox EC50 was 1.44 (inactive) and the EC50 amounted to 7.79 µM.
For the molecule `Cc1cccc2cc(CN(Cc3cccs3)C(=S)NCc3ccco3)c(=O)[nH]c12`, the fold increase in Dox EC50 was 0.41 (inactive) and the EC50 was 2.21 µM.
For the molecule `CCc1nnc(NC(=O)c2ccc(S(=O)(=O)N(CC)CC)cc2)s1`, the fold increase in Dox EC50 was 0.69 (inactive) and the EC50 worked out at 3.73 µM.
For `N=C(N)SCc1nc2ccccn2c1Br`, the fold increase in Dox EC50 was 0.28 (inactive) and the EC50 worked out at 1.49 µM.
In the case of `CNC(=O)CSc1nnc(COc2ccc(Cl)cc2)n1CCOC`, the fold increase in Dox EC50 is 1.29 (inactive) and the EC50 worked out at 6.95 µM.
